Structures can show the parent of a compound that is named as a salt.
Columns and labels:
[1] = target: T1, furin (endogenous protease) in U20S cells (Homo sapiens, UniProt P09958); assay: Furin cell-based assay (image-based, Golgi-targeted GFP with BMP10 furin/PCSK cleavage site); settings: 24-hour incubation, read-out: furin golgi cell pXC50 (converted);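 also: Read-out is mean GFP fluorescence of Golgi puncta per cell by high-content imaging, retained when furin inhibited, over an eleven-point 0.00017–10 µM series, four-parameter fit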
T1 construct: the endogenous protease cleaves GFP; endogenous in cells; host or cells: U2OS cells transduced with a BacMam reporter

TGFβ in mouse lung = assay: Bleomycin induced lung fibrosis model: TGFβ assay; format: in vivo; settings: relative to levels induced by Bleomycin in vehicle treated animals, *p < 0.05
Method: (§1) Preclinical pulmonary fibrosis can be induced by single instillation of Bleomycin to the mouse lung. A 15-day Bleomycin protocol was developed to evaluate compounds of the invention in vivo for their ability to inhibit TGFβ secretion and collagen deposition in the mouse lung. On the day before Bleomycin instillation, compounds were administrated to mice based on the appropriate route and frequency. On the study initiation day, under Ketamine (80 mg/kg) and Xylazine (10 mg/kg) anesthesia, all the animals were cannulated oro-tracheally and 50 μL of normal saline (Sham control) or 0.03 U Bleomycin in 50 μL saline (all groups except sham control group) was delivered into the trachea. Compounds were dosed daily until the end of study on Day 15. On termination day, animals were euthanized using CO2 inhalation. The right lung was collected, washed in normal saline, weighed, flash frozen in liquid nitrogen and stored at −80° C. for hydroxyproline (a specific marker for collagen) and TGFβ assays.
(§2) Flash frozen whole right lung tissues were homogenized in 500 μL of RIPA buffer containing PMSF and protease inhibitor cocktail using zirconium oxide bead based homogenizer (Bullet blender Gold, NextAdvance, Germany). Briefly, tissues were spun in the homogenizer at 4° C. for three cycles of 10 minutes each at 1000 g. A complete uniform tissue mixture was obtained using this procedure. The homogenate volume was made up to 1.5 mL by adding 1 mL of RIPA buffer containing PMSF and protease inhibitor cocktail to 500 μL of homogenate. The homogenate was stored as aliquots of 100-500 μL each at −80° C.
Lung tissue homogenates (500 μL) were spun at 13,000 rpm for 20 minutes at 4° C. and supernatants were collected for TGFβ estimation. The assay was performed according to the manufacturer's manual (R&D systems: Cat #SMB100B). Briefly, the lung homogenates were activated by acid activation followed by neutralization to convert latent TGFβ to active TGFβ and the total TGFβ levels in supernatants were measured. Total protein levels in the lung supernatant were also determined.

[2] = system: hydroxyproline (a specific marker for collagen) in mouse lung; assay: Bleomycin induced lung fibrosis model: hydroxyproline assay; format: in vivo; settings: relative to levels induced by Bleomycin in vehicle treated animals, *p < 0.05
Method: as §1, §2
Acid hydrolysis: 500 μL of the homogenized lung parenchyma was transferred to glass vials, and an equal volume of 12N HCl was added (final concentration of HCl: 6N). The vials were purged with nitrogen gas, sealed and incubated overnight (16 h) under anoxic conditions at 110° C.
Post incubation procedures: 35 μL of the sample from each tube or standard (prepared by serial dilution of hydroxyproline stock solution) was added onto a 96 well plate and the assay was performed as per the kit protocol (Quickzyme Biosciences: Cat #: QZBHYPR05). After the final color development, absorbance was measured by colorimetric analysis at 570 nm (using Thermoscan spectrum (Plate Reader) and results were recorded. Standard curve (linear graph) was generated by using hydroxyproline standards provided in the Quickzyme kit.

[3] = target: T2, Furin (108-574-Tev-Flag-His) enzyme (Homo sapiens, UniProt P09958); assay: Furin enzyme assay; format: biochemical
T2 construct: Furin (108-574-Tev-Flag-His) enzyme was expressed and purified from CHO cells; TEV cleavage site (C); FLAG (C); His (C); made in house; host or cells: CHO cells
Procedure, shortened: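 Compounds ran as 11-point threefold dilutions (0.00017–10 μM final) against 40 pM furin, purified from CHO cells, for 2 h at room temperature. Buffer: 100 mM HEPES pH7.5 with 1 mM CaCl2 and 0.005% Triton X-100. Envision readout. Four-parameter curve gives pXC50.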

[4] = system: epithelial sodium channel (ENaC); assay: Transepithelial Electrical Resistance (TEER) assay, primary CF delF508 or non-CF HBE cells (FIG. 6-9); format: cell-based, human; settings: compared to Example 11; only mid-μM concentrations partially effective; FIG. 8 and FIG. 9
Method: Primary cultures of CF delF508 or non-CF HBE cells are seeded onto permeable filter supports and grown for 12-14 days for a significant RTE to be measured for TEER assays.
When the ENaC is active under basal conditions (at least in part due to protease cleavage inside the cell or at the apical membrane), there is a finite RTE that is affected by the Na+ current flowing through ENaC heterotrimers (αβγ or δβγ).

[5] = 10 mg/kg, Intra-peritoneal, Once daily
[6] = 10 mg/kg, Intra-peritoneal, Twice daily

T2 sequence (P09958 108-574): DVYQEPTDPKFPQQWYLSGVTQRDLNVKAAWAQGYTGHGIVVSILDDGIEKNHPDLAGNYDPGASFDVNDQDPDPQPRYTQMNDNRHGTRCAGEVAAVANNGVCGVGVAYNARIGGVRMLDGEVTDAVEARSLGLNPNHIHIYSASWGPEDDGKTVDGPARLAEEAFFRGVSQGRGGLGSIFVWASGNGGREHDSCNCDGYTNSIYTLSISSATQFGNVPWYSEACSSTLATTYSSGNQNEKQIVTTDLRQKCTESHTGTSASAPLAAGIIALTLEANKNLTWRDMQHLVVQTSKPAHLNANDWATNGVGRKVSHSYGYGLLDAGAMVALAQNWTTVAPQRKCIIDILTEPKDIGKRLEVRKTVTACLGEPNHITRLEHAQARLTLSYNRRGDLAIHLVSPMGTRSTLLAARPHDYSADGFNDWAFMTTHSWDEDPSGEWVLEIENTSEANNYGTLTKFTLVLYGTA
T1 sequence (P09958 108-794): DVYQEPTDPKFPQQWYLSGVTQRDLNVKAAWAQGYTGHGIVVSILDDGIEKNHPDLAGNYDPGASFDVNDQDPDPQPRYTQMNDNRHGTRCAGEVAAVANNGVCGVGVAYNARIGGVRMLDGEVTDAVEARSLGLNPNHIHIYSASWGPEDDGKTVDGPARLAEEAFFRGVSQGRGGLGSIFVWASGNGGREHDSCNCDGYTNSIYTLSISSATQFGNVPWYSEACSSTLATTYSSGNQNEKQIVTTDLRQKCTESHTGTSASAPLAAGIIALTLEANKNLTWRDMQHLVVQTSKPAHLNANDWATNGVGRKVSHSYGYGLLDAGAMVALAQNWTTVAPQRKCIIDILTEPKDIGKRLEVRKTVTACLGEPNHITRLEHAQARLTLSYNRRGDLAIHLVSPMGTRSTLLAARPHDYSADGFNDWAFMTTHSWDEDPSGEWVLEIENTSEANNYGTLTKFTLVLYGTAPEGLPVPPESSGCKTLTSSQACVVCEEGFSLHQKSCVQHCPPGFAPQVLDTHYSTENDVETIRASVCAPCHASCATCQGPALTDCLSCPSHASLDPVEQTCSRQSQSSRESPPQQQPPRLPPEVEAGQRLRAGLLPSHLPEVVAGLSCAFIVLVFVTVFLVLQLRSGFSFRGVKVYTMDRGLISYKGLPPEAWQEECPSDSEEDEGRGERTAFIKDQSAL

Compound | EC50 [1] | furin enzyme pIC50 [3] | % inhibition of total TGFβ in lung (TGFβ in mouse lung; 10 mg/kg, Oral, Once daily) | % inhibition of hydroxyproline in lung ([2]; 10 mg/kg, Oral, Once daily) | further results
CC(=O)NCC1CCN(Cc2cc(Oc3cnc(N4CCN(CCC(C)C(=O)O)CC4)nc3)nc(-c3cc(Cl)cc(Cl)c3)c2)CC1 (stereo not shown) [Example 369, 4-(4-(5-((4-((4-(Acetamidomethyl)piperidin-1-yl)methyl)-6-(3,5-dichlorophenyl)pyridin-2-yl)oxy)pyrimidin-2-yl)piperazin-1-yl)-2-methylbutanoic acid, 4 hydrochloride] | 5.01 nM | 9.3 | 75* % | 62* % | 
O=C(O)CC1CCN(Cc2cc(Oc3cnc(N4CCN5CCC4C5)nc3)nc(-c3cc(Cl)cc(Cl)c3)c2)CC1 (stereo not shown) [Example 334, 2-(1-((2-((2-(1,4-Diazabicyclo[3.2.1]octan-4-yl)pyrimidin-5-yl)oxy)-6-(3,5-dichlorophenyl)pyridin-4-yl)methyl)piperidin-4-yl)acetic acid, 4 hydrochloride] | 20 nM | 8.9 |  |  | % inhibition of total TGFβ in lung (TGFβ in mouse lung; 30 mg/kg, Oral, Once daily): 36* %; % inhibition of hydroxyproline in lung ([2]; 30 mg/kg, Oral, Once daily): 34* %
CN(C)C(=O)COC(=O)Cc1ccc(OC(=O)c2ccc(NC(=N)N)cc2)cc1 [Camostat mesylate, reference compound] |  |  |  |  | inhibitory effect in TEER assay [4]: only partially inhibitory and modestly Inhibitory
CN1CCCN(c2ncc(Oc3cc(CN4CCC(CC(=O)O)CC4)cc(-c4cc(Cl)cc(Cl)c4)n3)cn2)CC1 [Example 126, 2-(1-((2-(3,5-Dichlorophenyl)-6-((2-(4-methyl-1,4-diazepan-1-yl)pyrimidin-5-yl)oxy)pyridin-4-yl)methyl)piperidin-4-yl)acetic acid] | 6.31 nM | 9 |  |  | % inhibition of total TGFβ in lung (TGFβ in mouse lung; 30 mg/kg, Oral, Once daily): 34* %; % inhibition of hydroxyproline in lung ([2]; 30 mg/kg, Oral, Once daily): 36* %
CN1CCN(c2cnc(Oc3cc(CN4CCC(CC(=O)O)CC4)cc(-c4cc(Cl)cc(Cl)c4)n3)cn2)CC1 [Example 339, 2-(1-((2-(3,5-Dichlorophenyl)-6-((5-(4-methylpiperazin-1-yl)pyrazin-2-yl)oxy)pyridin-4-yl)methyl)piperidin-4-yl)acetic acid] | 50.1 nM | 8.7 | 22% | 4% | 
CC(=O)NCC1CCN(Cc2cc(Oc3cnc(N4CCN(CCC(=O)O)CC4)nc3)nc(-c3cc(Cl)cc(Cl)c3)c2)CC1 [Example 263, 3-(4-(5-((4-((4-(acetamidomethyl)piperidin-1-yl)methyl)-6-(3,5-dichlorophenyl)pyridin-2-yl)oxy)pyrimidin-2-yl)piperazin-1-yl)propanoic acid] | 10 nM | 9.8 |  |  | % inhibition of total TGFβ in lung (TGFβ in mouse lung; [6]): 86* %; % inhibition of hydroxyproline in lung [2, 6]: 60* %

Now from value to compound, other results behind:

EC50 [1] | furin enzyme pIC50 [3] | Compound | % inhibition of total TGFβ in lung (TGFβ in mouse lung; 10 mg/kg, Oral, Once daily) | % inhibition of hydroxyproline in lung ([2]; 10 mg/kg, Oral, Once daily) | further results
20 nM | 9.2 | C[C@@H](O)CN1CCN(c2ncc(Oc3cc(CN4CCC(CC(=O)O)CC4)cc(-c4cc(Cl)cc(Cl)c4)n3)cn2)CC1 [Example 298, (R)-2-(1-((2-(3,5-Dichlorophenyl)-6-((2-(4-(2-hydroxypropyl)piperazin-1-yl)pyrimidin-5-yl)oxy)pyridin-4-yl)methyl)piperidin-4-yl)acetic acid] | 23* % | 16* % | 
10 nM | 9.1 | CC(CC1CCN(Cc2cc(Oc3cnc(N4CCN(C)CC4)nc3)nc(-c3cc(Cl)cc(Cl)c3)c2)CC1)C(=O)O (stereo in doubt) [Example 137, (R)-3-(1-((2-(3,5-dichlorophenyl)-6-((2-(4-methylpiperazin-1-yl)pyrimidin-5-yl)oxy)pyridin-4-yl)methyl)piperidin-4-yl)-2-methylpropanoic acid] | 81* % | 54* % | 
25.1 nM | 9.1 | CNC(=O)NCC1CCN(Cc2cc(Oc3ccc(N4CCN(CCC(=O)O)CC4)nc3)nc(-c3cc(Cl)cc(Cl)c3)c2)CC1 [Example 41, 3-(4-(5-((6-(3,5-Dichlorophenyl)-4-((4-((3-methylureido)methyl)piperidin-1-yl)methyl)pyridin-2-yl)oxy)pyridin-2-yl)piperazin-1-yl)propanoic acid] |  |  | % inhibition of total TGFβ in lung (TGFβ in mouse lung; [5]): 67* %; % inhibition of hydroxyproline in lung [2, 5]: 39* %
3.16 nM | 9.1 | CC(=O)NCC1CCN(Cc2cc(Oc3ccc(N4CCN(CCO)CC4)nc3)nc(-c3cc(Cl)cc(Cl)c3)c2)CC1 [Example 180, N-((1-((2-(3,5-Dichlorophenyl)-6-((6-(4-(2-hydroxyethyl)piperazin-1-yl)pyridin-3-yl)oxy)pyridin-4-yl)methyl)piperidin-4-yl)methyl)acetamide] |  |  | % inhibition of total TGFβ in lung (TGFβ in mouse lung; [5]): 60* %; % inhibition of hydroxyproline in lung [2, 5]: 56* %
